The values that follow come from ChEMBL document CHEMBL1140429, “Conversion of the potent delta-opioid agonist H-Dmt-Tic-NH-CH(2)-bid into delta-opioid antagonists by N(1)-benzimidazole alkylation(1)” (J Med Chem, 2005).

The term IC50 denotes the concentration needed to halve the response being measured. Read a low IC50 as higher potency. The term Ki denotes a measure of affinity in units of concentration, obtained from inhibition or displacement. Low values mean higher affinity, high ones lower affinity.

For test [1], the target named is Mu-type opioid receptor (Cavia porcellus, UniProt P97266). Kind of test: Functional bioactivity against mu opioid receptor in guinea-pig ileum. The test is classed as tissue-based.
Test [2] has as its target Delta-type opioid receptor (Rattus norvegicus, UniProt P33533). Kind of test: Displacement of [3H]deltorphin II from rat delta opioid receptor in brain P2 synaptosomes. The test is classed as subcellular.
Test [3] concerns the target Mu-type opioid receptor (Rattus norvegicus, UniProt P33535). Put plainly: Displacement of [3H]DAMGO from rat mu opioid receptor in brain P2 synaptosomes. The test is classed as subcellular. For orientation: Loss of bound radioactivity is the signal in a displacement assay; it reports binding, not function.
Test [4] has as its target Delta-type opioid receptor (Mus musculus, UniProt P32300). Kind of test: Functional bioactivity against delta opioid receptor in mouse vas deferens. The test is classed as tissue-based. As to conditions: for Kb: read-out: pA2 (converted); call rule not given here.

Chain of Mu-type opioid receptor (Cavia porcellus, UniProt P97266) (P97266 whole entry): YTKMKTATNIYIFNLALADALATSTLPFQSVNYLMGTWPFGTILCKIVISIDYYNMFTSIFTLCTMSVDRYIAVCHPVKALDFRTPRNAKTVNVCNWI
Chain of Mu-type opioid receptor (Rattus norvegicus, UniProt P33535) (P33535 whole entry): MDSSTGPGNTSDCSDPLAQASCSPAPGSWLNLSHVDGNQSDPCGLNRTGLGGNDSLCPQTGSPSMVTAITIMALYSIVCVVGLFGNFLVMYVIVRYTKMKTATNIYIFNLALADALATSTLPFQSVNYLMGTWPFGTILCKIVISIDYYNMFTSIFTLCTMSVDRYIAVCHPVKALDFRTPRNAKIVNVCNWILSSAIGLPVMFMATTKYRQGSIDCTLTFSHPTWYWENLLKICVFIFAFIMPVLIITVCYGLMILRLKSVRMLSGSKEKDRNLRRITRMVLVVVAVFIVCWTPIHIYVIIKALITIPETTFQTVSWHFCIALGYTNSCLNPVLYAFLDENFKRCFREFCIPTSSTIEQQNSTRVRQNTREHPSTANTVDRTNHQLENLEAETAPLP
Chain of Delta-type opioid receptor (Mus musculus, UniProt P32300) (P32300 whole entry): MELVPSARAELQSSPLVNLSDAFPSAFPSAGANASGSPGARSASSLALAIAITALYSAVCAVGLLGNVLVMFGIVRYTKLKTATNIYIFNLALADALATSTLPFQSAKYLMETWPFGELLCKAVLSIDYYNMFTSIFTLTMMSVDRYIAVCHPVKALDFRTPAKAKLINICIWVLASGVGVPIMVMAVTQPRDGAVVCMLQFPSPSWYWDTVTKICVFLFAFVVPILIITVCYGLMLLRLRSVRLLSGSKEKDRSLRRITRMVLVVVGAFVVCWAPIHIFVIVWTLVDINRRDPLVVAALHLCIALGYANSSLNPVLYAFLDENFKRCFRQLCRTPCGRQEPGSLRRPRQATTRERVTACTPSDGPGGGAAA
Chain of Delta-type opioid receptor (Rattus norvegicus, UniProt P33533) (P33533 whole entry): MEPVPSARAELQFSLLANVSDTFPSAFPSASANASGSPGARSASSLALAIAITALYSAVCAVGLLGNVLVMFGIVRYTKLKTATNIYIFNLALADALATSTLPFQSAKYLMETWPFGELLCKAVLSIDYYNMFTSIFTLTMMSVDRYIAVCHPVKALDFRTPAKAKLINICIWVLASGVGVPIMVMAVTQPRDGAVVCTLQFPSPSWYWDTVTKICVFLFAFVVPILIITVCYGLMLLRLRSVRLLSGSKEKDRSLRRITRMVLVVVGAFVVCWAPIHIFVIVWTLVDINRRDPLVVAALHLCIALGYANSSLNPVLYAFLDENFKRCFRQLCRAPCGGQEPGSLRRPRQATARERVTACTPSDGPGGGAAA

`CC(C)[C@H](NC(=O)[C@H](CC(=O)O)NC(=O)[C@H](Cc1ccccc1)NC(=O)[C@@H](C)NC(=O)[C@@H](N)Cc1ccc(O)cc1)C(=O)N[C@H](C(=O)NCC(N)=O)C(C)C` [DELTORPHIN C]: at Mu-type opioid receptor [1], the IC50 turned out to be 1300 nM. That is a single-digit micromolar value.

Take `Cc1cc(O)cc(C)c1C[C@H](N)C(=O)N1Cc2ccccc2C[C@H]1C(=O)NCc1nc2ccccc2n1Cc1ccccc1`: the Ki in test [2] came out at 0.2 nM; on Mu-type opioid receptor [3], 1.02 nM. For the same compound, the IC50 entry is “Not Active” in test [4] and 245 nM against Mu-type opioid receptor [1]. The Kb in test [4] was 3.02 nM.

In the case of `CCOC(=O)Cn1c(CNC(=O)[C@@H]2Cc3ccccc3CN2C(=O)[C@@H](N)Cc2c(C)cc(O)cc2C)nc2ccccc21`, the Ki in test [2] was determined as 0.12 nM; at Mu-type opioid receptor [3], 1.42 nM. In addition, the values for the IC50 result (in test [4]; on Mu-type opioid receptor [1]) were “Not Active” and 30 nM, respectively. Also, the Kb in test [4] was 0.17 nM.

`Cc1cc(O)cc(C)c1C[C@H](N)C(=O)N1Cc2ccccc2C[C@H]1C(=O)NCc1nc2ccccc2n1C`: the inhibition constant (Ki) stood at 0.16 nM in test [2] and 0.83 nM on Mu-type opioid receptor [3]. Further, the IC50 result is “Not Active” in test [4] and 450 nM on Mu-type opioid receptor [1]. Also, the Kb in test [4] was 0.0724 nM.

On Mu-type opioid receptor [1], `C[C@@H](NC(=O)[C@@H](N)Cc1ccc(O)cc1)C(=O)N[C@@H](Cc1ccccc1)C(=O)NCC(=O)N[C@@H](Cc1ccc(O)cc1)C(=O)N1CCC[C@H]1C(=O)N[C@@H](CO)C(N)=O` [DERMORPHIN] came in with an IC50 of 1.9 nM.

Consider `Cc1cc(O)cc(C)c1C[C@H](N)C(=O)N1Cc2ccccc2C[C@H]1C(=O)NCc1nc2ccccc2n1CC(=O)O`, for which the Ki in test [2] is 0.021 nM; at Mu-type opioid receptor [3] it was 6.92 nM. The figures for the IC50 entry (in test [4]; on Mu-type opioid receptor [1]) were “Not Active” and 3190 nM, respectively. For the same compound, the Kb in test [4] was 0.269 nM.

In the case of `C=CCn1c(CNC(=O)[C@@H]2Cc3ccccc3CN2C(=O)[C@@H](N)Cc2c(C)cc(O)cc2C)nc2ccccc21`, the figures for the Ki (in test [2]; on Mu-type opioid receptor [3]) were 0.13 nM and 0.44 nM, respectively. Also, the IC50 result in test [4] is “Not Active”; against Mu-type opioid receptor [1] it was 72 nM. In addition, the Kb in test [4] was 0.457 nM.

`Cc1cc(O)cc(C)c1C[C@H](N)C(=O)N1Cc2ccccc2C[C@H]1C(=O)NCc1nc2ccccc2n1CC1CC1`: the inhibitory constant (Ki) is 0.36 nM in test [2] and 0.52 nM on Mu-type opioid receptor [3]. The values for the IC50 result (in test [4]; at Mu-type opioid receptor [1]) were “Not Active” and 64 nM, respectively. The Kb in test [4] is 0.339 nM.
